Consider 53 compounds from ChEMBL document CHEMBL4811228, “Design, Synthesis, and Activity Evaluation of Novel Acyclic Nucleosides as Potential Anticancer Agents In Vitro and In Vivo” (J Med Chem, 2021).

The subject of one test is HCT-116. The test is described as follows: Antiproliferative activity against human HCT-116 cells assessed as reduction in cell viability incubated for 48 hrs by MTT assay. To be noted: HCT-116, 48 h. Format: functional, cell-based.
A further test concerns SW480. Put plainly: Antiproliferative activity against human SW480 cells assessed as reduction in cell viability incubated for 48 hrs by MTT assay. To be noted: SW480, 48 h. Format: functional, cell-based.

pIC50: −log10 of the molar value.

As for `CCCCCCCCC(CCO)n1cnc2c(N)nc(Cl)nc21` (racemic), the results for the pIC50 with HCT-116 and with SW480 were 4.68 and 4.88, respectively.

For `CCCCCCCCCC(CCOS(C)(=O)=O)n1cnc2c(Cl)ncnc21` (racemic), the pIC50 was 5.26 with HCT-116 and 5.27 with SW480.

As for `CCCCCCCCCCCC(CCO)n1cnc2c(N)nc(Cl)nc21` (racemic), the pIC50 with HCT-116 is 4.70; with SW480, 4.75.

Regarding `CCCCCCCCCCCC(CCO)n1cnc2c(Cl)ncnc21` (racemic), the pIC50 in the test on HCT-116 was 5.12; in the test on SW480, 5.28.

Take `CCCCCCCCCC(CCOCP(=O)(O)O)n1cnc2c(Cl)ncnc21` (racemic): the pIC50 in the test with HCT-116 and in the test with SW480 was less than 4.30 throughout.

With `CCCCCCCC(CCO)n1cnc2c(NC)ncnc21` (racemic), the results for the pIC50 in the test with HCT-116 and with SW480 were 4.90 and 4.82, respectively.

In the case of `CCCCCCCCC[C@H](CCN=[N+]=[N-])n1cnc2c(Cl)ncnc21`, the pIC50 is 5.92 in the test with HCT-116 and 5.91 with SW480.

Turning to `CCCCCCC(CCO)n1cnc2c(N)ncnc21` (racemic), the pIC50 in the test with HCT-116 and with SW480 was less than 4.30 in each case.

Take `CCCCCCCC(CCO)n1cnc2c(N)nc(Cl)nc21` (racemic): the pIC50 in the test with HCT-116 and in the test with SW480 was less than 4.30 each time.

Take `CCCCCCCC(CCO)n1cnc2c(OC)ncnc21` (racemic): the values for the pIC50 in the test on HCT-116 and in the test with SW480 were 4.82 and 4.62, respectively.

As for `CCCCCCCC(CCO)n1cnc2c(N)ncnc21` (racemic), the pIC50 in the test with HCT-116 and in the test with SW480 was less than 4.30 each time.

On to `CCCCCCC(CCO)n1cnc2c(Cl)ncnc21` (racemic), for which the results for the pIC50 in the test with HCT-116 and in the test on SW480 were 4.92 and 4.78, respectively.

Turning to `CCCCC(CCO)n1cnc2c(Cl)nc(F)nc21` (racemic), the pIC50 in the test with HCT-116 is 4.87; in the test on SW480, 4.88.

With `C=C(CO)C(CCCCCCC)n1cnc2c(Cl)ncnc21` (racemic), the pIC50 with HCT-116 was 4.65; with SW480 it was 4.53.

In the case of `OCCCn1cnc2c(Cl)nc(F)nc21`, the values for the pIC50 in the test on HCT-116 and with SW480 were 4.40 and 4.53, respectively.

For the compound `CCCCCCCCC[C@H](CCO)n1cnc2c(Cl)ncnc21`, the pIC50 was 6.35 in the test on HCT-116 and 5.79 with SW480.

For the compound `CCCCCCCCC(CCO)n1cnc2c(Cl)nc(F)nc21` (racemic), the figures for the pIC50 in the test on HCT-116 and in the test on SW480 were 4.62 and 4.82, respectively.

For the compound `C=C(CO)C(c1ccccc1)n1cnc2c(Cl)ncnc21` (racemic), the pIC50 in the test on HCT-116 was 4.48; with SW480, 4.89.

For `CCC(CCO)n1cnc2c(Cl)nc(F)nc21` (racemic), the pIC50 was 4.72 with HCT-116 and 4.70 in the test on SW480.

Consider `CCCCCCCCCCC(CCO)n1cnc2c(N(C)C)ncnc21` (racemic), for which the results for the pIC50 in the test on HCT-116 and in the test with SW480 were 5.26 and 5.48, respectively.

`CCCCCCCC(CCO)n1cnc2c(Cl)nc(F)nc21` (racemic): the results for the pIC50 in the test with HCT-116 and in the test on SW480 were 4.76 and 4.58, respectively.

With `CCCCCCC(CCO)n1c(Br)nc2c(Cl)ncnc21` (racemic), the values for the pIC50 in the test with HCT-116 and with SW480 were 4.79 and 4.85, respectively.

As to `CCCCCC(CCO)n1cnc2c(NC)ncnc21` (racemic), the pIC50 in the test on HCT-116 and with SW480 was less than 4.30 in each case.

As for `CCCCCCCCC(CCO)n1c(Br)nc2c(Cl)ncnc21` (racemic), the pIC50 with HCT-116 was 4.65; in the test with SW480, 4.75.

With `OCCC(CO)n1cnc2c(Cl)ncnc21` (racemic), the pIC50 in the test with HCT-116 and in the test with SW480 was less than 4.30 each time.

Regarding `CCC(CCO)n1cnc2c(Cl)ncnc21` (racemic), the pIC50 in the test on HCT-116 and in the test with SW480 was less than 4.30 in each case.

Take `CCCCCCCCCCCC(CCO)n1cnc2c(N)ncnc21` (racemic): the pIC50 in the test with HCT-116 is 4.87; in the test with SW480, 4.94.

As to `CCCCCCCCCC(CCO)n1c(Br)nc2c(Cl)ncnc21` (racemic), the pIC50 with HCT-116 is 4.57; in the test with SW480 it was 4.60.

Take `CCCCCCCC(CCO)n1c(Br)nc2c(Cl)ncnc21` (racemic): the pIC50 with HCT-116 was 4.79; in the test on SW480 it was 4.84.

Consider `OCCC(COCc1ccccc1)n1cnc2c(Cl)ncnc21` (racemic), for which the pIC50 in the test with HCT-116 and in the test on SW480 was less than 4.30 throughout.

As for `CCCCC(CCO)n1cnc2c(OC)ncnc21` (racemic), the pIC50 in the test with HCT-116 and in the test on SW480 was less than 4.30 each time.

Consider `CCCCCCCC(CCO)n1cnc2c(N(C)C)ncnc21` (racemic), for which the pIC50 with HCT-116 and with SW480 was less than 4.30 in each case.

As to `CCCCCCC(CCO)n1cnc2cncnc21` (racemic), the pIC50 with HCT-116 and in the test on SW480 was less than 4.30 in each case.

As for `CCCCCC(CCO)n1cnc2c(OC)ncnc21` (racemic), the pIC50 with HCT-116 and in the test with SW480 was less than 4.30 in each case.

`CCCCC(CCO)n1cnc2c(Cl)nc(Cl)nc21` (racemic): the pIC50 in the test on HCT-116 was 4.81; with SW480, 4.51.

Regarding `CCCCCCCCCCCC(CCO)n1cnc2c(N(C)C)ncnc21` (racemic), the pIC50 was 4.92 in the test with HCT-116 and 4.93 in the test on SW480.

For `CCCCC(CCO)n1cnc2c(Cl)ncnc21` (racemic), the pIC50 in the test on HCT-116 and with SW480 was less than 4.30 throughout.

Turning to `CC(C)(C)[Si](C)(C)OCC(CCO)n1cnc2c(Cl)ncnc21` (racemic), the figures for the pIC50 with HCT-116 and in the test with SW480 were less than 4.30 and 4.50, respectively.

Regarding `CCCCCC(CCO)n1cnc2c(Cl)ncnc21` (racemic), the pIC50 in the test with HCT-116 and in the test on SW480 was less than 4.30 each time.

As to `CCCCCCCCCCC(CCO)n1cnc2c(OC)ncnc21` (racemic), the pIC50 in the test with HCT-116 was 5.12; in the test on SW480 it was 5.08.

With `CCCCCCCC(CCO)n1cnc2c(Cl)nc(Cl)nc21` (racemic), the pIC50 in the test with HCT-116 was 4.89; with SW480, 4.87.

In the case of `CCCCCCCCCC(CCO)n1cnc2c(N(C)C)ncnc21` (racemic), the pIC50 is 5.01 in the test on HCT-116 and 4.91 in the test on SW480.

For `CCCCCCCCCCCC(CCO)n1cnc2c(OC)ncnc21` (racemic), the pIC50 is 5.08 in the test on HCT-116 and 5.01 in the test on SW480.

Take `CCCCCCCCCC(CCO)n1cnc2c(Cl)nc(F)nc21` (racemic): the pIC50 in the test with HCT-116 was 4.49; in the test with SW480, 4.90.

On to `C=C(CO)C(CCCCCCCCC)n1cnc2c(Cl)ncnc21` (racemic), for which the pIC50 in the test with HCT-116 is less than 4.30; in the test with SW480 it was 4.56.

As to `CCCCCCCCC[C@H](CCOS(C)(=O)=O)n1cnc2c(Cl)ncnc21`, the pIC50 in the test on HCT-116 was 5.02; in the test on SW480, 5.01.

Turning to `CCCCCCC(CCO)n1cnc2c(Cl)nc(Cl)nc21` (racemic), the results for the pIC50 in the test with HCT-116 and in the test with SW480 were 4.92 and 4.91, respectively.

Consider `CCCCC(CCO)n1cnc2cncnc21` (racemic), for which the pIC50 in the test with HCT-116 and in the test with SW480 was less than 4.30 each time.

For the compound `CCCCCCCC(CCO)n1cnc2c(Cl)ncnc21` (racemic), the pIC50 in the test with HCT-116 was 5.38; in the test with SW480 it was 5.44.

On to `CCCCCCCCC(CCO)n1cnc2c(NC)ncnc21` (racemic), for which the values for the pIC50 in the test on HCT-116 and in the test with SW480 were 5.43 and 5.42, respectively.

Regarding `CCCC(CCO)n1cnc2c(Cl)nc(F)nc21` (racemic), the pIC50 was 4.78 in the test with HCT-116 and 4.76 in the test on SW480.

With `CCCCCCC(CCO)n1cnc2c(N(C)C)ncnc21` (racemic), the pIC50 with HCT-116 and with SW480 was less than 4.30 each time.

Consider `CCCCCCCCCC(CCN=[N+]=[N-])n1cnc2c(Cl)ncnc21` (racemic), for which the negative-log IC50 (pIC50) was 5.98 in the test with HCT-116 and 5.92 with SW480.
